# Results reported in the supplement of paper PMC10307832.
# Experiments:
# Assay in all cases: relative viability (nuclei count vs DMSO), 5 days (fraction); higher = more cells survive
# ABC-1 = tested on: ABC-1
# Summary of the method: (§1)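 Values are medians from duplicate plates. Each reflects relative viability, defined as the nuclei count of treated wells over that of vehicle wells. Lung cancer cell lines in 1536-well plates were pin-tool dosed one day after seeding with one drug alone or with a fixed anchor-drug dose plus five library-drug doses (not always all listed) in √10 steps, then fixed, stained and imaged at 4× after 5 days.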
# NCI-H838 = tested on: NCI-H838
# Summary of the method: as §1
# EMC-BAC-2 = tested on: EMC-BAC-2
# Summary of the method: as §1
# NCI-H2347 = tested on: NCI-H2347
# Summary of the method: as §1
# HOP-62 = tested on: HOP-62
# Summary of the method: as §1
# SW 900 = tested on: SW 900
# Summary of the method: as §1
# HCC-44 = tested on: HCC-44
# Summary of the method: as §1
# NCI-H3122 = tested on: NCI-H3122
# Summary of the method: as §1
# PC-14 = tested on: PC-14
# Summary of the method: as §1
# ChaGo-K-1 = tested on: ChaGo-K-1
# Summary of the method: as §1
# EKVX = tested on: EKVX
# Summary of the method: as §1
# NCI-H2228 = tested on: NCI-H2228
# Summary of the method: as §1
# SK-MES-1 = tested on: SK-MES-1
# Summary of the method: as §1
# 201T = tested on: 201T
# Summary of the method: as §1
# RERF-LC-KJ = tested on: RERF-LC-KJ
# Summary of the method: as §1
# SW 1573 = tested on: SW 1573
# Summary of the method: as §1
# NCI-H1355 = tested on: NCI-H1355
# Summary of the method: as §1
# UMC-11 = tested on: UMC-11
# Summary of the method: as §1
# NCI-H2009 = tested on: NCI-H2009
# Summary of the method: as §1
# LK-2 = tested on: LK-2
# Summary of the method: as §1
# HCC-78 = tested on: HCC-78
# Summary of the method: as §1
# LC-2-ad = tested on: LC-2-ad
# Summary of the method: as §1
smiles,measurement,setting,value
COCC1(CO)C(=O)C2CCN1CC2 (configuration not stated) [PRIMA-1MET] + CC(=O)c1c(C)c2cnc(Nc3ccc(N4CCNCC4)cn3)nc2n(C2CCCC2)c1=O [Palbociclib] (partner 0.5 µM),relative viability,ABC-1; first compound 0.2 µM,0.984
same,relative viability,ABC-1; first compound 2 µM,0.482
same,relative viability,ABC-1; first compound 6.325 µM,0.552
same,relative viability,ABC-1; first compound 20 µM,0.181
same,relative viability,NCI-H838; first compound 0.2 µM,0.261
same,relative viability,NCI-H838; first compound 0.6325 µM,0.188
same,relative viability,NCI-H838; first compound 2 µM,0.207
same,relative viability,NCI-H838; first compound 6.325 µM,0.22
same,relative viability,NCI-H838; first compound 20 µM,0.232
same,relative viability,EMC-BAC-2; first compound 0.2 µM,0.586
same,relative viability,EMC-BAC-2; first compound 0.6325 µM,0.466
same,relative viability,EMC-BAC-2; first compound 2 µM,0.478
same,relative viability,EMC-BAC-2; first compound 6.325 µM,0.503
same,relative viability,EMC-BAC-2; first compound 20 µM,0.499
same,relative viability,NCI-H2347; first compound 0.2 µM,0.451
same,relative viability,NCI-H2347; first compound 0.6325 µM,0.317
same,relative viability,NCI-H2347; first compound 2 µM,0.365
same,relative viability,NCI-H2347; first compound 6.325 µM,0.42
same,relative viability,NCI-H2347; first compound 20 µM,0.313
same,relative viability,HOP-62; first compound 0.2 µM,0.549
same,relative viability,HOP-62; first compound 0.6325 µM,0.385
same,relative viability,HOP-62; first compound 2 µM,0.469
same,relative viability,HOP-62; first compound 6.325 µM,0.475
same,relative viability,HOP-62; first compound 20 µM,0.317
same,relative viability,SW 900; first compound 0.2 µM,0.601
same,relative viability,SW 900; first compound 0.6325 µM,0.564
same,relative viability,SW 900; first compound 6.325 µM,0.559
same,relative viability,SW 900; first compound 20 µM,0.0834
same,relative viability,HCC-44; first compound 0.2 µM,1.02
same,relative viability,HCC-44; first compound 0.6325 µM,0.873
same,relative viability,HCC-44; first compound 2 µM,0.95
same,relative viability,HCC-44; first compound 6.325 µM,0.954
same,relative viability,HCC-44; first compound 20 µM,1.03
same,relative viability,NCI-H3122; first compound 0.2 µM,0.21
same,relative viability,NCI-H3122; first compound 0.6325 µM,0.167
same,relative viability,NCI-H3122; first compound 2 µM,0.184
same,relative viability,NCI-H3122; first compound 6.325 µM,0.2
same,relative viability,NCI-H3122; first compound 20 µM,0.201
same,relative viability,PC-14; first compound 0.2 µM,0.644
same,relative viability,PC-14; first compound 0.6325 µM,0.476
same,relative viability,PC-14; first compound 2 µM,0.509
same,relative viability,PC-14; first compound 6.325 µM,0.525
same,relative viability,PC-14; first compound 20 µM,0.0303
same,relative viability,ChaGo-K-1; first compound 0.2 µM,0.989
same,relative viability,ChaGo-K-1; first compound 0.6325 µM,0.897
same,relative viability,ChaGo-K-1; first compound 2 µM,0.917
same,relative viability,ChaGo-K-1; first compound 6.325 µM,0.906
same,relative viability,ChaGo-K-1; first compound 20 µM,0.836
same,relative viability,EKVX; first compound 0.2 µM,0.42
same,relative viability,EKVX; first compound 2 µM,0.346
same,relative viability,EKVX; first compound 6.325 µM,0.368
same,relative viability,EKVX; first compound 20 µM,0.321
same,relative viability,NCI-H2228; first compound 0.2 µM,0.631
same,relative viability,NCI-H2228; first compound 0.6325 µM,0.778
same,relative viability,NCI-H2228; first compound 2 µM,0.742
same,relative viability,NCI-H2228; first compound 6.325 µM,0.402
same,relative viability,NCI-H2228; first compound 20 µM,0.0392
same,relative viability,SK-MES-1; first compound 0.2 µM,0.323
same,relative viability,SK-MES-1; first compound 0.6325 µM,0.371
same,relative viability,SK-MES-1; first compound 2 µM,0.326
same,relative viability,SK-MES-1; first compound 6.325 µM,0.291
same,relative viability,SK-MES-1; first compound 20 µM,0.295
same,relative viability,201T; first compound 0.2 µM,0.386
same,relative viability,201T; first compound 0.6325 µM,0.356
same,relative viability,201T; first compound 2 µM,0.331
same,relative viability,201T; first compound 6.325 µM,0.352
same,relative viability,201T; first compound 20 µM,0.331
same,relative viability,RERF-LC-KJ; first compound 0.2 µM,1.13
same,relative viability,RERF-LC-KJ; first compound 0.6325 µM,1.13
same,relative viability,RERF-LC-KJ; first compound 2 µM,0.978
same,relative viability,RERF-LC-KJ; first compound 6.325 µM,1.08
same,relative viability,RERF-LC-KJ; first compound 20 µM,1.04
same,relative viability,SW 1573; first compound 0.2 µM,0.456
same,relative viability,SW 1573; first compound 0.6325 µM,0.317
same,relative viability,SW 1573; first compound 2 µM,0.345
same,relative viability,SW 1573; first compound 6.325 µM,0.0953
same,relative viability,SW 1573; first compound 20 µM,0.0194
same,relative viability,NCI-H1355; first compound 0.2 µM,0.465
same,relative viability,NCI-H1355; first compound 0.6325 µM,0.393
same,relative viability,NCI-H1355; first compound 2 µM,0.328
same,relative viability,NCI-H1355; first compound 6.325 µM,0.436
same,relative viability,NCI-H1355; first compound 20 µM,0.414
same,relative viability,UMC-11; first compound 0.2 µM,0.31
same,relative viability,UMC-11; first compound 0.6325 µM,0.362
same,relative viability,UMC-11; first compound 2 µM,0.268
same,relative viability,UMC-11; first compound 6.325 µM,0.356
same,relative viability,UMC-11; first compound 20 µM,0.278
same,relative viability,NCI-H2009; first compound 0.2 µM,0.185
same,relative viability,NCI-H2009; first compound 0.6325 µM,0.251
same,relative viability,NCI-H2009; first compound 2 µM,0.112
same,relative viability,NCI-H2009; first compound 6.325 µM,0.215
same,relative viability,NCI-H2009; first compound 20 µM,0.0008
same,relative viability,LK-2; first compound 0.2 µM,0.814
same,relative viability,LK-2; first compound 0.6325 µM,0.705
same,relative viability,LK-2; first compound 2 µM,0.534
same,relative viability,LK-2; first compound 6.325 µM,0.211
same,relative viability,LK-2; first compound 20 µM,0.0375
same,relative viability,HCC-78; first compound 0.2 µM,0.449
same,relative viability,HCC-78; first compound 0.6325 µM,0.507
same,relative viability,HCC-78; first compound 2 µM,0.397
same,relative viability,HCC-78; first compound 6.325 µM,0.446
same,relative viability,HCC-78; first compound 20 µM,0.427
same,relative viability,LC-2-ad; first compound 0.2 µM,0.496
same,relative viability,LC-2-ad; first compound 0.6325 µM,0.484
same,relative viability,LC-2-ad; first compound 2 µM,0.525
same,relative viability,LC-2-ad; first compound 6.325 µM,0.457
same,relative viability,LC-2-ad; first compound 20 µM,0.468
